These results are taken from US9529005B2, “Modulating bacterial MAM polypeptides in pathogenic disease” (priority 2011, dated 2016).

For one assay, the system named is Acinetobacter baumannii. Nature of the assay: Antimicrobial susceptibility testing (MIC), BD Phoenix Automated Microbiology System. The class given is cell-based. Conditions: for MIC: Acinetobacter baumannii.
The test system of a further assay is Escherichia coli. The description is as above. The class given is cell-based.
The test system of a further assay is Klebsiella ssp. The assay is described as above. The class given is cell-based.
The subject of a further assay is Pseudomonas aeruginosa. The description is as above. The class given is cell-based.
Assay [1] in a line: Liposome association assay. The class given is binding. Conditions: individual GST-mce domains, 1-80 mol % PA, densitometry; relative to high binding mce domains. How it is done: PBS-buffered liposomes were prepared from 1,2-Dioleoyl-sn-glycero-3-phosphocholine (PC) or mixtures of PC and 1,2-dioleoyl-sn-glycero-3-phosphate (PA) (both Avanti Polar Lipids Inc.) as described previously (Selyunin et al., 2011), but using PBS as buffer. 300 μg liposomes were incubated with 100 μg MBP-MAM protein in PBS for one hour at 22° C. Mixtures were centrifuged at 100 000×g, 4° C. for one hour and both pellet and supernatant fractions were separated by SDS-PAGE and proteins were detected by Coomassie staining.
Binding of GST and GST-mce constructs to liposomes were carried out as described in the literature (Krachler et al., 2011). 300 μg liposomes containing PC alone or 1-80 mol % PA were incubated with 100 μg GST and GST-mce proteins in PBS for one hour at 22° C. Mixtures were centrifuged at 100,000×g, 4° C. for one hour and both pellet and supernatant fractions were separated by SDS-PAGE and proteins detected by Coomassie staining Band intensities were determined using the gel analysis software UN-SCAN-IT (Silk Scientific Inc.) and intensities of pellet samples (% bound) were expressed as fraction of total intensities (supernatant and pellet samples combined).

Assay [2] is described as follows: Pull-down of liposomes (50 mol % PA, 50 mol % PC) on immobilized GST-mce domains. Format: binding. Conditions: 50 mol % PA and 50 mol % PC, molybdophosphoric acid assay. As to the method: Liposomes in load, flowthrough and eluate fractions were quantified using the method of Worth an Wright (1977). Briefly, samples were extracted with a mixture of chloroform and methanol, centrifuged and molybdophosphoric acid (Sigma) was added to the organic phase. Samples were centrifuged and the aqueous phase removed. Metol and sodium bisulfate were added to reduce the organic phase and the aqueous phase was removed again following centrifugation. The amount of phospholipid was determined by measuring absorbance at 680 nm and expressed as fraction of the amount detected in loaded fractions.
Although the inventors had previously shown that MAM1 is sufficient to bind to phosphatidic acid, it was unclear how the other mce domains contributed to phosphatidic acid binding in the absence of fibronectin. The inventors tested all seven individual mce domains (mce1-mce7) for phosphatidic acid binding using liposome association assays. Proteins were incubated with liposomes containing a mixture of PC and increasing amounts (1-80 mol %) of PA, followed by separation of liposome-bound and un-bound fractions by ultracentrifugation. All fractions were analyzed by SDS-PAGE (data not shown) followed by densitometry (FIG. 18A). […] When the inventors analyzed the mce domains of MAM7 for overall charge, they found only minor differences between individual domains. When they looked at charge distribution, however, the inventors observed that several basic residues that are otherwise well conserved between individual domains are mutated in mce 6. These include two residues which are lysines in mce 2, the strongest binding mce domain, but a serine and glutamine in mce 6, respectively, and a well conserved arginine which is replaced by a histidine in mce 6 (FIG. 18D). […]. (FIG. 18B and data not shown). […] GST-mce proteins were immobilized and incubated with liposomes. Bound liposomes were quantified using a molybdophosphoric acid assay. […]

[3] abbreviates: Acinetobacter baumannii isolate 1.
Setting [4] is: Acinetobacter baumannii isolate 2.
Setting [5] is: Acinetobacter baumannii isolate 3.
Setting [6] is: Acinetobacter baumannii isolate 4.
The mark [7] stands for this setting: Acinetobacter baumannii isolate 5.
Setting [8] is: Pseudomonas aeruginosa isolate 1.
Where [9] appears, read: Pseudomonas aeruginosa isolate 2.
The mark [10] stands for this setting: Pseudomonas aeruginosa isolate 3.
Setting [11] is: Pseudomonas aeruginosa isolate 4.
Where [12] appears, read: Pseudomonas aeruginosa isolate 5.

Like-named read-outs stand apart in the source and are kept apart here.
Throughout, for interpretation of the result: key: R, resistant; I, intermediate; S, susceptible; R*: *As a rule, when ESBL is detected, an interpretation of susceptible or intermediate for penicillins, cephalosporins and aztreonam is reported as resistant.

For the molecule `CC1(C)S[C@@H]2[C@H](NC(=O)[C@H](N)c3ccccc3)C(=O)N2[C@H]1C(=O)O` [Amp., Ampicillin], the “interpretation of the result” value in the assay on Acinetobacter baumannii (setting [3]), in the assay with Acinetobacter baumannii (setting [4]), in the assay with Acinetobacter baumannii (setting [5]), in the assay with Acinetobacter baumannii (setting [6]), in the assay with Acinetobacter baumannii (setting [7]) and with Escherichia coli (Escherichia coli isolate 1) was “R” throughout. The “interpretation of the result” value with Escherichia coli (Escherichia coli isolate 2), with Escherichia coli (Escherichia coli isolate 3), in the assay on Escherichia coli (Escherichia coli isolate 4), in the assay on Escherichia coli (Escherichia coli isolate 5), with Klebsiella ssp. (Klebsiella ssp. isolate 1) and in the assay with Klebsiella ssp. (Klebsiella ssp. isolate 2) was “R” each time. Moreover, the “interpretation of the result” value with Klebsiella ssp. (Klebsiella ssp. isolate 3), in the assay with Klebsiella ssp. (Klebsiella ssp. isolate 4), in the assay on Klebsiella ssp. (Klebsiella ssp. isolate 5), in the assay with Pseudomonas aeruginosa (setting [8]), in the assay with Pseudomonas aeruginosa (setting [9]) and in the assay on Pseudomonas aeruginosa (setting [10]) was “R” each time. Further, the “interpretation of the result” value in the assay on Pseudomonas aeruginosa (setting [11]) and in the assay with Pseudomonas aeruginosa (setting [12]) was “R” throughout. Besides, the MIC is > 16 µg/mL with Acinetobacter baumannii (read-out: minimal inhibiting concentration, Acinetobacter baumannii isolate 1); > 16 µg/mL in the assay on Acinetobacter baumannii (read-out: minimal inhibiting concentration, Acinetobacter baumannii isolate 2); > 16 µg/mL in the assay with Acinetobacter baumannii (read-out: minimal inhibiting concentration, Acinetobacter baumannii isolate 3); > 16 µg/mL in the assay with Acinetobacter baumannii (read-out: minimal inhibiting concentration, Acinetobacter baumannii isolate 4); > 16 µg/mL in the assay with Acinetobacter baumannii (read-out: minimal inhibiting concentration, Acinetobacter baumannii isolate 5); > 16 µg/mL with Escherichia coli (Escherichia coli, read-out: minimal inhibiting concentration). Further, the MIC in the assay with Klebsiella ssp. (Klebsiella, read-out: minimal inhibiting concentration) is > 16 µg/mL; in the assay on Pseudomonas aeruginosa (Pseudomonas aeruginosa, read-out: minimal inhibiting concentration), > 16 µg/mL. For the same molecule, the minimal inhibiting concentration in the assay on Escherichia coli (Escherichia coli isolate 2), in the assay with Escherichia coli (Escherichia coli isolate 3), in the assay with Escherichia coli (Escherichia coli isolate 4), in the assay with Escherichia coli (Escherichia coli isolate 5), in the assay with Klebsiella ssp. (Klebsiella ssp. isolate 2) and in the assay on Klebsiella ssp. (Klebsiella ssp. isolate 3) was > 16 µg/mL throughout. Besides, the minimal inhibiting concentration in the assay on Klebsiella ssp. (Klebsiella ssp. isolate 4), in the assay with Klebsiella ssp. (Klebsiella ssp. isolate 5), with Pseudomonas aeruginosa (setting [9]), with Pseudomonas aeruginosa (setting [10]), in the assay with Pseudomonas aeruginosa (setting [11]) and in the assay with Pseudomonas aeruginosa (setting [12]) was > 16 µg/mL in each case.
With Gentamicin [Gent.], the “interpretation of the result” value with Acinetobacter baumannii (setting [3]), with Acinetobacter baumannii (setting [4]), in the assay on Acinetobacter baumannii (setting [5]), in the assay with Acinetobacter baumannii (setting [6]), in the assay with Acinetobacter baumannii (setting [7]) and in the assay on Escherichia coli (Escherichia coli isolate 1) was “R” throughout. For the same molecule, the “interpretation of the result” value with Escherichia coli (Escherichia coli isolate 2) is given as “R”; in the assay with Escherichia coli (Escherichia coli isolate 3) it was “R”; in the assay on Escherichia coli (Escherichia coli isolate 4), “S”; in the assay on Escherichia coli (Escherichia coli isolate 5) it was “S”; with Klebsiella ssp. (Klebsiella ssp. isolate 1), “R”; in the assay on Klebsiella ssp. (Klebsiella ssp. isolate 2) it was “R”. For the same molecule, the “interpretation of the result” value in the assay on Klebsiella ssp. (Klebsiella ssp. isolate 3) is given as “I”; with Klebsiella ssp. (Klebsiella ssp. isolate 4), “R”; in the assay on Klebsiella ssp. (Klebsiella ssp. isolate 5), “R”; in the assay on Pseudomonas aeruginosa (setting [8]), “S”; in the assay with Pseudomonas aeruginosa (setting [9]), “S”; with Pseudomonas aeruginosa (setting [10]), “I”. In addition, the “interpretation of the result” value in the assay with Pseudomonas aeruginosa (setting [11]) and in the assay on Pseudomonas aeruginosa (setting [12]) was “R” in each case. The minimal inhibiting concentration in the assay with Acinetobacter baumannii (setting [3]), in the assay with Acinetobacter baumannii (setting [4]), in the assay with Acinetobacter baumannii (setting [5]), with Acinetobacter baumannii (setting [6]), with Acinetobacter baumannii (setting [7]) and in the assay with Escherichia coli (Escherichia coli isolate 1) was > 8 µg/mL each time. Further, the minimal inhibiting concentration was > 8 µg/mL in the assay with Escherichia coli (Escherichia coli isolate 2); > 8 µg/mL in the assay with Escherichia coli (Escherichia coli isolate 3); ≤ 2 µg/mL in the assay with Escherichia coli (Escherichia coli isolate 4); ≤ 2 µg/mL with Escherichia coli (Escherichia coli isolate 5); > 8 µg/mL in the assay on Klebsiella ssp. (Klebsiella ssp. isolate 1); > 8 µg/mL with Klebsiella ssp. (Klebsiella ssp. isolate 2). The minimal inhibiting concentration with Klebsiella ssp. (Klebsiella ssp. isolate 3) is 8 µg/mL; with Klebsiella ssp. (Klebsiella ssp. isolate 4) it was > 8 µg/mL; in the assay with Klebsiella ssp. (Klebsiella ssp. isolate 5), > 8 µg/mL; in the assay on Pseudomonas aeruginosa (setting [8]), 4 µg/mL; in the assay on Pseudomonas aeruginosa (setting [9]), 4 µg/mL; in the assay on Pseudomonas aeruginosa (setting [10]), 8 µg/mL. Further, the minimal inhibiting concentration in the assay with Pseudomonas aeruginosa (setting [11]) and in the assay on Pseudomonas aeruginosa (setting [12]) was > 8 µg/mL each time.

B1: mce 4: GST-tagged individual mce domain 4 of V. parahaemolyticus MAM7 (SEQ ID NO: 8) (protein, listed as Vibrio parahaemolyticus)
chain: SIAIRLISDNSFGLDSGANVLYKGIVVGSIINVGLVDEKKQTKHEVFMDVLIDHEYKHLIKSNNRFYVTGSASAELTESGLSVTVP
modifications: GST tag
For the molecule B1, in assay [1], the “decrease of binding to PA-containing liposomes (apparent affinity)” value (“decrease of binding” for short) was “bound equally well”. Further, the “binding of liposomes to immobilized GST-mce proteins” value (from here on “binding of liposomes”) in assay [2] is on record as “strong binding”.

B2: mce 2: GST-tagged individual mce domain 2 of V. parahaemolyticus MAM7 (SEQ ID NO: 6) (protein, listed as Vibrio parahaemolyticus)
chain: QGLNIKLKSRDLGGVSIGSQIVYKKIPIGAVYSYQLDEDAKSITIQANIQEQYRHIINDRSRFWNVSGIGASIGFEGVDVRLESMSALLGG
modifications: GST tag
On to B2, for which the “decrease of binding” value in assay [1] is “bound equally well”. Also, the “binding of liposomes” value in assay [2] was “strong binding”.

B3: mce 3: GST-tagged individual mce domain 3 of V. parahaemolyticus MAM7 (SEQ ID NO: 7) (protein, listed as Vibrio parahaemolyticus)
chain: RGIAIKIALPDDNKVSSEGAPIMYRGIEIGQVTDLSLSEGREVILASAAIQPAFSDMLTTGTRFVLEEAKVSLSGVENIANLVRGNFLTIVPG
modifications: GST tag
In the case of B3, the “decrease of binding” value in assay [1] was “bound equally well”. In assay [2], the “binding of liposomes” value is on record as “strong binding”.

B4: mce 7: GST-tagged individual mce domain 7 of V. parahaemolyticus MAM7 (SEQ ID NO: 11) (protein, listed as Vibrio parahaemolyticus)
chain: EGVMFTLQSEQRGSVQVGTPVLYRQMEVGQVTDVRLGEFADRVVSTIKIKPEYAYLVRQNSVFWNVSGVDVSIGITGANIKAGTIDSLVRG
modifications: GST tag
Take B4: in assay [1], the “decrease of binding” value was ~20 fold. The “binding of liposomes” value in assay [2] is reported as “strong binding”.

B5: mce 1: GST-tagged individual mce domain 1 of V. parahaemolyticus MAM7 (SEQ ID NO: 5) (protein, listed as Vibrio parahaemolyticus)
chain: AGQRVQIYFSDAAGLVAGRTTIRYQGLEVGMVRDINLSEDLGSIYVDADIYPEATKLLNDKTRFWLVKPTASLTGVSGLDALVSGNYISIQPG
modifications: GST tag
Turning to B5, the “decrease of binding” value in assay [1] was “bound equally well”. Besides, in assay [2], the “binding of liposomes” value was “strong binding”.

B6: mce 5: GST-tagged individual mce domain 5 of V. parahaemolyticus MAM7 (SEQ ID NO: 9) (protein, listed as Vibrio parahaemolyticus)
chain: GSKTLMLFASELPPISKGSPLLYRNLPVGNVSDFHLVDGGVLIKATIENRFAYLVTPQTVFWNRSGIEIDASLSGVSVKAHPLKSLIEG
modifications: GST tag
With B6, the “decrease of binding” value in assay [1] is recorded as ~6 fold. In addition, the “binding of liposomes” value in assay [2] was “weaker binding”.
